According to article PMC7568786, “Tilianin Protects against Ischemia/Reperfusion-Induced Myocardial Injury through the Inhibition of the Ca^2+/Calmodulin-Dependent Protein Kinase II-Dependent Apoptotic and Inflammatory Signaling Pathways” (BioMed Research International, 2020):
pIC50: −log10 of the molar value.

Biological target: T1, CaMKIIδ (Homo sapiens, UniProt Q13557)
T1 construct: gene CAMK2D; recombinant CaMKIIδ (Invitrogen)
Test: in vitro kinase assay with autocamtide-2 peptide, ADP quantification
Type: biochemical

T1 sequence (Q13557 2-499): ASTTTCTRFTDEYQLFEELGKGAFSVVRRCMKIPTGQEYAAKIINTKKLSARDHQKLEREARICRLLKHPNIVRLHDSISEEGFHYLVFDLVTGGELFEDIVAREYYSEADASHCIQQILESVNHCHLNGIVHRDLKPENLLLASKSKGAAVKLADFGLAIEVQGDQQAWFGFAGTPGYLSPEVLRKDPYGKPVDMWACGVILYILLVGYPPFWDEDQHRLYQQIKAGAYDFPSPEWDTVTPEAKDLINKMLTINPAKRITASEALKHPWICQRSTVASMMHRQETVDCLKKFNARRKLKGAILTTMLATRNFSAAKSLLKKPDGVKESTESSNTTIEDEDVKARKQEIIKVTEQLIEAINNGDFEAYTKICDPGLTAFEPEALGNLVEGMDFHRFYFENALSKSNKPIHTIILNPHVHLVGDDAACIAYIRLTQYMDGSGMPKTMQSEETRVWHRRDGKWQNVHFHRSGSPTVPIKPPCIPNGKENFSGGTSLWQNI

pIC50 | SMILES
< 4.00 | COc1ccc(-c2cc(=O)c3c(O)cc(O[C@@H]4O[C@H](CO)[C@@H](O)[C@H](O)[C@H]4O)cc3o2)cc1 [tilianin]
5.20 | COc1ccc(S(=O)(=O)N(CCO)c2ccccc2CN(C)C/C=C/c2ccc(Cl)cc2)cc1 [KN93]
